According to US5616320A, “Use of antibiotics 10381b to promote growth” (The Upjohn Company, priority 1994, dated 1997):

How the values were obtained:
Bacillus subtilis = assay: Antibacterial spectrum, disc zone of inhibition; type: cell-based; settings: UC 564; 1/2 inch discs, 80 μl
Procedure: (§1) ^1 Assays marked * used 1/4 inch (6.35 mm) discs and 20 μl
(§2) All other assays used 1/2 inch (12.7 mm) discs and 80 μl samples.
(§3) h = hazy; vl = very light; tr = trace. Assay procedures are described in
(§4) Hanka, L. J., M. R. Burch and W. T. Sokolski. Psicofuranine. IV.
(§5) Microbiological assay. Antibiot. and Chemoth. 9:432-435 (1959).

Bacteroides fragilis = assay: Antibacterial spectrum, disc zone of inhibition; type: cell-based; settings: UC 6513; 1/2 inch discs, 80 μl
Procedure: as §1, §2, §3, §4, §5

[1] = system: Bordetella bronchiseptica; assay: Antibacterial spectrum, disc zone of inhibition; type: cell-based; settings: UC 6481; 1/2 inch discs, 80 μl
Procedure: as §1, §2, §3, §4, §5

Candida albicans = assay: Antibacterial spectrum, disc zone of inhibition; type: cell-based; settings: UC 1392
Procedure: as §1, §2, §3, §4, §5

Clostridium perfrigens = assay: Antibacterial spectrum, disc zone of inhibition; type: cell-based; settings: UC 6509; 1/2 inch discs, 80 μl
Procedure: as §1, §2, §3, §4, §5

Escherichia coli = assay: Antibacterial spectrum, disc zone of inhibition; type: cell-based; settings: UC 51; 1/2 inch discs, 80 μl
Procedure: as §1, §2, §3, §4, §5

Hemophilus influenzae = assay: Antibacterial spectrum, disc zone of inhibition; type: cell-based; settings: UC 6483; 1/4 inch discs, 20 μl
Procedure: as §1, §2, §3, §4, §5

Klebsiella pneumoniae = assay: Antibacterial spectrum, disc zone of inhibition; type: cell-based; settings: UC 57; 1/2 inch discs, 80 μl
Procedure: as §1, §2, §3, §4, §5

Micrococcus luteus = assay: Antibacterial spectrum, disc zone of inhibition; type: cell-based; settings: 1/2 inch discs, 80 μl
Procedure: as §1, §2, §3, §4, §5

Mycobacterium avium = assay: Antibacterial spectrum, disc zone of inhibition; type: cell-based; settings: UC 159; 1/2 inch discs, 80 μl
Procedure: as §1, §2, §3, §4, §5

Pasteurella hemolytica = assay: Antibacterial spectrum, disc zone of inhibition; type: cell-based; settings: UC 6531; 1/2 inch discs, 80 μl
Procedure: as §1, §2, §3, §4, §5

Penicillium oxalicum = assay: Antibacterial spectrum, disc zone of inhibition; type: cell-based; settings: UC 1268
Procedure: as §1, §2, §3, §4, §5

Proteus vulgaris = assay: Antibacterial spectrum, disc zone of inhibition; type: cell-based; settings: UC 93; 1/2 inch discs, 80 μl
Procedure: as §1, §2, §3, §4, §5

Pseudomonas aeruginosa = assay: Antibacterial spectrum, disc zone of inhibition; type: cell-based; settings: UC 95; 1/2 inch discs, 80 μl
Procedure: as §1, §2, §3, §4, §5

[2] = system: Rhodopseudomonas sphaeroides; assay: Antibacterial spectrum, disc zone of inhibition; type: cell-based; settings: UC 3238; 1/2 inch discs, 80 μl
Procedure: as §1, §2, §3, §4, §5

Saccharomyces cerevisiae = assay: Antibacterial spectrum, disc zone of inhibition; type: cell-based; settings: UC 1342
Procedure: as §1, §2, §3, §4, §5

[3] = system: Salmonella schottmuelleri; assay: Antibacterial spectrum, disc zone of inhibition; type: cell-based; settings: UC 126; 1/2 inch discs, 80 μl
Procedure: as §1, §2, §3, §4, §5

Serratia marcescens = assay: Antibacterial spectrum, disc zone of inhibition; type: cell-based; settings: UC 6888; 1/4 inch discs, 20 μl
Procedure: as §1, §2, §3, §4, §5

Staphylococcus aureus = assay: Antibacterial spectrum, disc zone of inhibition; type: cell-based
Procedure: as §1, §2, §3, §4, §5

Streptococcus faecalis = assay: Antibacterial spectrum, disc zone of inhibition; type: cell-based
Procedure: as §1, §2, §3, §4, §5

Streptococcus pyogenes = assay: Antibacterial spectrum, disc zone of inhibition; type: cell-based; settings: UC 152
Procedure: as §1, §2, §3, §4, §5

Neisseria gonorrhoeae = assay: Antibacterial spectrum, disc zone of inhibition; type: cell-based; parameters: key: hazy; vl: very light; trace; settings: UC 3065; 1/4 inch discs, 20 μl
Procedure: as §1, §2, §3, §4, §5

[4] = system: Staphylococcus epidermidis; assay: Antibacterial spectrum, disc zone of inhibition; type: cell-based; parameters: key: hazy; vl: very light; trace; settings: UC 719; 1/4 inch discs, 20 μl
Procedure: as §1, §2, §3, §4, §5

Streptococcus pneumoniae = assay: Antibacterial spectrum, disc zone of inhibition; type: cell-based; parameters: key: hazy; vl: very light; trace; settings: UC 9207; 1/4 inch discs, 20 μl
Procedure: as §1, §2, §3, §4, §5

Solubility = type: physicochemical
Toxicity = assay: Toxicity; parameters: species or system mammals
[5] = system: Gram-positive bacteria, yeasts, and fungi; assay: In vitro antimicrobial activity (statement in words); type: cell-based
yeasts and fungi = assay: Growth inhibition (statement in words); type: cell-based

For `CC(CCN(C)C(=N)N)C(N)C(=O)NC1C=CC(n2ccc(N)nc2=O)OC1C(=O)O` (centres unmarked) [Antibiotic 10381a1], the “Zone of Inhibition” value (Bacillus subtilis) was 0 mm, the “Zone of Inhibition” value (Bacteroides fragilis) was 21 mm and the “Zone of Inhibition” value [1] was 0 mm. For the same compound, the “activity” value (Candida albicans) was “active”, the “Zone of Inhibition” value (Candida albicans; 1/4 inch discs, 20 μl) was 12 mm and the “Zone of Inhibition” value (Clostridium perfrigens) was 18 mm. The “Zone of Inhibition” value (Escherichia coli) was 0 mm, the “Zone of Inhibition” value (Hemophilus influenzae) was 10 mm and the “Zone of Inhibition” value (Klebsiella pneumoniae) was 0 mm. For the same compound, the “Zone of Inhibition” value (Micrococcus luteus; UC 130) was 32 mm, the “Zone of Inhibition” value (Micrococcus luteus; UC 3383) was 32 mm and the “Zone of Inhibition” value (Mycobacterium avium) was 17 mm. For the same compound, the “Zone of Inhibition” value (Pasteurella hemolytica) was 0 mm, the “activity” value (Penicillium oxalicum) was “active” and the “Zone of Inhibition” value (Penicillium oxalicum; 1/2 inch discs, 80 μl) was 36 mm. For the same compound, the “Zone of Inhibition” value (Proteus vulgaris) was 0 mm, the “Zone of Inhibition” value (Pseudomonas aeruginosa) was 0 mm and the “Zone of Inhibition” value [2] was 33 mm. The “activity” value (Saccharomyces cerevisiae) was “active”, the “Zone of Inhibition” value (Saccharomyces cerevisiae; 1/2 inch discs, 80 μl) was 31 mm and the “Zone of Inhibition” value [3] was 0 mm. The “Zone of Inhibition” value (Serratia marcescens) was 0 mm, the “Zone of Inhibition” value (Staphylococcus aureus; UC 80, 1/2 inch discs, 80 μl) was 16 h and the “Zone of Inhibition” value (Staphylococcus aureus; UC 3665, 1/2 inch discs, 80 μl) was 0 mm. The “Zone of Inhibition” value (Staphylococcus aureus; UC 6685, 1/4 inch discs, 20 μl) was 0 mm, the “Zone of Inhibition” value (Streptococcus faecalis; UC 221, 1/4 inch discs, 20 μl) was 10 vl and the “activity” value (Streptococcus faecalis; UC 694) was “active”. For the same compound, the “activity” value (Streptococcus pyogenes) was “active”, the “Zone of Inhibition” value (Streptococcus pyogenes; 1/2 inch discs, 80 μl) was 25 mm and the “Zone of Inhibition” value (Neisseria gonorrhoeae) was “tr”. The “Zone of Inhibition” value [4] was “tr”, the “Zone of Inhibition” value (Streptococcus pneumoniae) was “tr” and the Solubility (Solubility; acetone, ethyl acetate, ether and chlorinated or saturated hydrocarbon solvents) was “Insoluble”. The Solubility (Solubility; water and lower alcohols) was “Soluble”, the “toxicity relative to blasticidin” value (Toxicity; compared with blasticidin) was “less toxicity than blasticidin” and the toxicity (Toxicity; in mammals / versus prior art antibiotics) was “greatly reduced toxicity”. The “antimicrobial activity” value [5] was “broad spectrum antibiotic properties” and the growth inhibitory effect (yeasts and fungi) was “especially strong growth inhibitory effect”.
